Assay results reported in the NIST ThermoML archive (doi:10.1016/j.jct.2012.01.007).
Several values for one entry are separate records, joined by “and”; a condition that tells them apart may be missing. Equal values may be shown once.

Experiment: osmotic coefficient (dimensionless); mn = molality of the nth substance listed, in mol/kg
Details: 298.15 K, Liquid, isopiestic method

CCCC[n+]1ccc(N(C)C)cc1.F[B-](F)(F)F [4-(dimethylamino)-1-butylpyridinium tetrafluoroborate] + CCO
Details | osmotic coefficient
m1 = 0 | 1
m1 = 0.3225 | 0.606
m1 = 0.333 | 0.526
m1 = 0.3357 | 0.6
m1 = 0.3459 | 0.506
m1 = 0.4422 | 0.468
m1 = 0.4806 | 0.429 and 0.445
m1 = 0.4942 | 0.418
m1 = 0.5101 | 0.42 and 0.404
m1 = 0.6548 | 0.383
m1 = 0.7459 | 0.394
m1 = 0.8064 | 0.365
m1 = 0.9658 | 0.343
m1 = 1.075 | 0.327
m1 = 1.154 | 0.339
m1 = 1.195 | 0.318
m1 = 1.289 | 0.325
m1 = 1.393 | 0.322
m1 = 1.613 | 0.321
m1 = 1.945 | 0.304
m1 = 2.716 | 0.316
m1 = 3.676 | 0.336
m1 = 3.763 | 0.326
m1 = 5.468 | 0.283
m1 = 7.248 | 0.218

CCCCCC[n+]1ccc(N(C)C)cc1.F[B-](F)(F)F [4-(dimethylamino)-1-hexylpyridinium tetrafluoroborate] + CCO
Details | osmotic coefficient
m1 = 0 | 0.999
m1 = 0.3863 | 0.523
m1 = 0.4915 | 0.435
m1 = 0.6139 | 0.417
m1 = 0.7149 | 0.447
m1 = 0.7716 | 0.429
m1 = 1.225 | 0.413 and 0.431
m1 = 1.39 | 0.375
m1 = 1.495 | 0.39
m1 = 1.778 | 0.35
m1 = 1.799 | 0.409
m1 = 2.283 | 0.376
m1 = 2.753 | 0.378
m1 = 3.718 | 0.351
m1 = 4.128 | 0.37
m1 = 5.581 | 0.384

CCCCC[n+]1ccc(N(C)C)cc1.F[B-](F)(F)F [4-(dimethylamino)-1-pentylpyridinium tetrafluoroborate] + CCO
Details | osmotic coefficient
m1 = 0 | 0.999
m1 = 0.4148 | 0.513
m1 = 0.4808 | 0.455
m1 = 0.5469 | 0.468
m1 = 0.568 | 0.397
m1 = 0.6869 | 0.376
m1 = 0.8468 | 0.359
m1 = 0.9582 | 0.335
m1 = 1.291 | 0.38
m1 = 1.757 | 0.331
m1 = 1.899 | 0.327
m1 = 2.515 | 0.327
m1 = 4.304 | 0.283
m1 = 5.313 | 0.288
m1 = 7.334 | 0.301
